Like-named read-outs stand apart in the source and are kept apart here.
Assays:
[1] = tested on: wheat powdery mildew; assay: Test on preventive effect against wheat powdery mildew; assay type: in vivo, Wheat (cultivar: Norin-61-go); settings: Triticum aestivum, foliar spray before inoculation, examined 6 to 8 days after inoculation, read-out: controlling effects as compared with non-treated cases (area of sporogony)
Experimental: Tests on Preventive Effect Against Wheat Powdery Mildew Wheat (cultivar: […] After the drug solution dried, the wheat was inoculated by spreading with conidiospore of fungi of powdery mildew, and the wheat was kept in a thermostatic chamber at 20° C. From 6 to 8 days after the inoculation, the area of sporogony was examined.

[2] = tested on: rice blast; assay: whole plant or invertebrate; assay type: in vivo, Rice (cultivar: Nihonbare); settings: Pyricularia oryzae, foliar, read-out: controlling effects as compared with non-treated cases (number of lesions)
[3] = tested on: cucumber powdery mildew; assay: Test on rainfastness of effect against cucumber powdery mildew; assay type: in vivo, Cucumber (cultivar: Suyo); settings: Cucumis sativus, topical, 500 gai/ha
Experimental: Cucumber (cultivar: […] A day after the treatment, 10 mm/hr of artificial rainfall was applied for 1 hour. Together with seedlings not subjected to rainfall treatment (preventive), the cucumber was sprayed and inoculated with a conidiospore suspension of fungi of powdery mildew, and the cucumber was kept in a thermostatic chamber at 20° C. From 6 to 11 days after the inoculation, the number of lesions was examined, and the controlling rate was calculated by comparison with the non-treated cases. The results are shown in Table 5.

[4] = tested on: cucumber powdery mildew; assay: Test on preventive effect against cucumber powdery mildew; assay type: in vivo, Cucumber (cultivar: Suyo); settings: Cucumis sativus, foliar spray before inoculation, examined 6 to 11 days after inoculation, read-out: controlling effects as compared with non-treated cases (area of sporogony)
Experimental: Test on Preventive Effect Against Cucumber Powdery Mildew Cucumber (cultivar: […] After the drug solution dried, the cucumber was sprayed and inoculated with a conidiospore suspension of fungi of powdery mildew, and the cucumber was kept in a thermostatic chamber at 20° C. From 6 to 11 days after the inoculation, the area of sporogony was examined.

[5] = 10 mm/hr artificial rainfall for 1 hour a day after treatment, read-out: Controlling rate of cucumber powdery mildew (%) Rainfall
[6] = no rainfall treatment (preventive), read-out: Controlling rate of cucumber powdery mildew (%) Preventive

Row | Structure (SMILES) | pest or weed control at 125 ppm [1] | pest or weed control at 500 ppm [2] | pest or weed control at 500 g/ha [3, 5] | pest or weed control at 500 g/ha [3, 6] | pest or weed control at 125 ppm [4] | melting point
1 | COc1cc(C)c(C(=O)c2c(Cl)ncc(I)c2Cl)c(OC)c1OC [1-17, 3-(2,3,4-trimethoxy-6-methylbenzoyl)-2,4-dichloro-5-iodopyridine] | ≥ 90% | ≥ 90% | – | – | – | –
2 | COc1cc(C)c(C(=O)c2c(OC)cnc(C)c2Cl)c(OC)c1OC [2-4, 4-(2,3,4-trimethoxy-6-methylbenzoyl)-3-chloro-5-methoxy-2-methylpyridine, reference compound] | ≥ 90% | – | 35% | 92.5% | – | –
3 | COc1cc(C)c(C(=O)c2c(OC)ncc(Cl)c2SC)c(OC)c1OC [1-10, 3-(2,3,4-trimethoxy-6-methylbenzoyl)-5-chloro-2-methoxy-4-methylthiopyridine] | ≥ 90% | – | – | – | ≥ 90% | –
4 | COc1cc(C)c(C(=O)c2c(OC)cnc(Br)c2C)c(OC)c1OC [2-3, 4-(2,3,4-trimethoxy-6-methylbenzoyl)-2-bromo-5-methoxy-3-methylpyridine, reference compound] | ≥ 90% | ≥ 90% | 0% | 100% | ≥ 90% | –
5 | COc1cc(C)c(C(=O)c2c(OC)ncc(Br)c2Br)c(OC)c1OC [1-12, 3-(2,3,4-trimethoxy-6-methylbenzoyl)-4,5-dibromo-2-methoxypyridine] | ≥ 90% | – | 68% | 100% | ≥ 90% | –
6 | CCOc1ncc(Cl)c(Br)c1C(=O)c1c(C)cc(OC)c(OC)c1OC [1-5, 3-(2,3,4-trimethoxy-6-methylbenzoyl)-4-bromo-5-chloro-2-ethoxypyridine] | ≥ 90% | – | – | – | ≥ 90% | –
7 | COc1cc(C)c(C(=O)c2c(OC)cnc(Cl)c2Cl)c(OC)c1OC [2-6, 4-(2,3,4-trimethoxy-6-methylbenzoyl)-2,3-dichloro-5-methoxypyridine, reference compound] | ≥ 90% | – | 0% | 90% | ≥ 90% | –
8 | COc1cc(C)c(C(=O)c2c(OC)ncc(C)c2C(F)(F)F)c(OC)c1OC [Compound No. 1-37, 3-(2,3,4-trimethoxy-6-methylbenzoyl)-4-trifluoromethyl-2-methoxy-5-methylpyridine] | ≥ 90% | – | 100% | 100% | ≥ 90% | –
9 | CCOc1ncc(C)c(C)c1C(=O)c1c(C)cc(OC)c(OC)c1OCC [1-21, 3-(2-ethoxy-3,4-dimethoxy-6-methylbenzoyl)-2-ethoxy-4,5-dimethylpyridine] | ≥ 90% | – | – | – | ≥ 90% | –
10 | COc1cc(C)c(C(=O)c2c(OC)ncc(Br)c2C(F)(F)F)c(OC)c1OC [1-14, 3-(2,3,4-trimethoxy-6-methylbenzoyl)-5-bromo-4-trifluoromethyl-2-methoxypyridine] | ≥ 90% | – | 100% | 100% | ≥ 90% | –
11 | COc1cc(C)c(C(=O)c2c(F)ncc(C)c2C)c(OC)c1OC [1-19, 3-(2,3,4-trimethoxy-6-methylbenzoyl)-2-fluoro-4,5-dimethylpyridine] | ≥ 90% | – | – | – | – | 91 to 92 °C
12 | COc1cc(C)c(C(=O)c2c(OC)ncc(C)c2Cl)c(OC)c1OC [1-24, 3-(2,3,4-trimethoxy-6-methylbenzoyl)-4-chloro-2-methoxy-5-methylpyridine] | ≥ 90% | ≥ 90% | 85% | 100% | ≥ 90% | –
13 | COc1cc(C)c(C(=O)c2c(OC)cnc(C)c2C(F)(F)F)c(OC)c1OC [2-2, 4-(2,3,4-trimethoxy-6-methylbenzoyl)-3-trifluoromethyl-5-methoxy-2-methylpyridine, reference compound] | ≥ 90% | – | 35% | 100% | ≥ 90% | –
14 | COc1cc(C)c(C(=O)c2c(OC)ncc(Br)c2C)c(OC)c1OC [1-36, 3-(2,3,4-trimethoxy-6-methylbenzoyl)-5-bromo-2-methoxy-4-methylpyridine] | ≥ 90% | – | – | – | ≥ 90% | –
15 | COc1cc(C)c(C(=O)c2c(SC)ncc(C)c2C)c(OC)c1OC [1-22, 3-(2,3,4-trimethoxy-6-methylbenzoyl)-4,5-dimethyl-2-methylthiopyridine] | ≥ 90% | ≥ 90% | – | – | ≥ 90% | –
16 | CCOc1ncc(Cl)c(C)c1C(=O)c1c(C)cc(OC)c(OC)c1OC [1-6, 3-(2,3,4-trimethoxy-6-methylbenzoyl)-5-chloro-2-ethoxy-4-methylpyridine] | ≥ 90% | – | – | – | – | –
17 | CCOc1cc(C(=O)c2c(OC)ncc(Cl)c2Cl)c(C)cc1OC [1-4, 3-(5-ethoxy-4-methoxy-2-methylbenzoyl)-4,5-dichloro-2-methoxypyridine] | ≥ 90% | – | – | – | ≥ 90% | –
18 | CCc1c(Cl)cnc(OC)c1C(=O)c1c(C)cc(OC)c(OC)c1OC [1-2, 3-(2,3,4-trimethoxy-6-methylbenzoyl)-5-chloro-4-ethyl-2-methoxypyridine] | ≥ 90% | ≥ 90% | – | – | ≥ 90% | –
19 | COc1cc(C)c(C(=O)c2c(OC)ncc(Cl)c2C)c(OC)c1OC [Compound No. 1-35, 3-(2,3,4-trimethoxy-6-methylbenzoyl)-5-chloro-2-methoxy-4-methylpyridine] | ≥ 90% | ≥ 90% | 100% | 100% | ≥ 90% | –
20 | CCOc1ncc(Br)c(Cl)c1C(=O)c1c(C)cc(OC)c(OC)c1OC [1-7, 3-(2,3,4-trimethoxy-6-methylbenzoyl)-5-bromo-4-chloro-2-ethoxypyridine] | ≥ 90% | – | – | – | ≥ 90% | –
21 | COc1cc(C)c(C(=O)c2c(OC)ncc(Br)c2Cl)c(OC)c1OC [1-23, 3-(2,3,4-trimethoxy-6-methylbenzoyl)-5-bromo-4-chloro-2-methoxypyridine] | ≥ 90% | ≥ 90% | 100% | 100% | ≥ 90% | –
22 | COc1cc(C)c(C(=O)c2c(OC)ccnc2OC)c(OC)c1OC [2-5, 3-(2,3,4-trimethoxy-6-methylbenzoyl)-2,4-dimethoxypyridine, reference compound] | ≥ 90% | – | 0% | 95% | – | –
23 | COc1cc(C)c(C(=O)c2c(OC)cnc(Cl)c2C)c(OC)c1OC [2-1, 4-(2,3,4-trimethoxy-6-methylbenzoyl)-2-chloro-5-methoxy-3-methylpyridine, reference compound] | ≥ 90% | – | 0% | 100% | ≥ 90% | –
24 | COc1cc(C)c(C(=O)c2c(OC)ncc(C)c2Br)c(OC)c1OC [1-13, 3-(2,3,4-trimethoxy-6-methylbenzoyl)-4-bromo-2-methoxy-5-methylpyridine] | ≥ 90% | – | – | – | ≥ 90% | –
